Source: US20240208983A1, “1,2,4-TRIAZOLO[4,3-A]PYRIDINE DERIVATIVES AS NEGATIVE ALLOSTERIC MODULATORS OF METABOTROPIC GLUTAMATE RECEPTOR 2” (Vanderbilt University, priority 2021, published 2024)
Read-outs that look alike come from different tables or passages of the source.

How the values were obtained:
group II mGlu receptors = conditions: cited from earlier work
human mGlu3 = molecular target: T1, human mGlu3 (Homo sapiens, UniProt Q14832); assay: mGlu3 GIRK cell-based thallium flux assay; conditions: HEK-293 co-expressing human mGlu3 and GIRK; EC80 glutamate
T1 construct: expressed in transfected cells; host or cells: HEK-293
Procedure: (§1) Human embryonic kidney (HEK-293) cell lines stably co-expressing human mGlu2 and G protein-coupled inwardly rectifying potassium (GIRK) channels, or human mGlu3 and GIRK, were used for in vitro evaluation of compound activity through thallium flux assays.
(§2) The day before the assay, cells from cell lines co-expressing human mGlu2 or mGlu3 and GIRK, as described above, were plated in black-walled, clear-bottomed, amine-coated 384-well plates in 20 μL of assay medium (DMEM containing 10% FBS, 1 M HEPES, 100 mM sodium pyruvate) at a density of 15,000 cells/well and stored at 37° C. in the presence of 5% CO2. On the day of the assay, medium was removed and replaced with assay buffer (Hanks balanced salt solution, 20 mM HEPES, 4.16 mM sodium bicarbonate, pH 7.2) containing 0.328 μM FluoZin-2 AM dye. The dye was initially made up as a 2.85 mM stock in DMSO and diluted 1:1 with 10% pluronic acid before adding to the buffer. Cells were then incubated for one hour at room temperature. After dye-loading, excess extracellular dye was removed by exchanging the dye solution with assay buffer resulting in 20 μL of buffer in each well. After a ten-minute rest period, cell plates were loaded into a Hamamatsu μCell kinetic imaging plate reader to monitor fluorescence using 470 nm excitation and 540 nm emission settings.
(§3) After collection of baseline fluorescence, 20 μL of compound solution prepared as a concentration response series in assay buffer was added. The concentration series was created from a 10 mM DMSO compound stock by performing a 1:3 serial dilution in DMSO followed by a 1:167 dilution of each DMSO solution in buffer. […] Multiple reference wells containing no compound received either no glutamate (for a baseline reference), EC80 glutamate, or ECmax glutamate (for normalization to maximum response). Signal was monitored an additional 2.5 minutes after the glutamate addition. Fluorescence was measured throughout the experiment at a frequency of 1 measurement per every 2 seconds before the glutamate addition and a frequency of 1 measurement per every 1 second after the glutamate addition. Each compound concentration series occurred one time in each plate, and replicates from two or three plates were used in each experimental run. Thallium solutions were handled and disposed of according to guidelines from the Vanderbilt University Chemical Safety department.
(§4) Data were normalized using a static ratio function (F/F0) by dividing every fluorescent measurement by the initial fluorescent value for the corresponding well. The increase in signal resulting from the glutamate/thallium addition of the second add was measured by determining the slope from 3 seconds to 13 seconds after the addition. The average of all baseline slopes (no compound, no glutamate) was determined and this value was subtracted from all other slope values. The average of all ECmax slopes was determined and this value was used to normalize the baseline-corrected slopes to a percent max value (% Emax). The % Emax values for each compound series were plotted versus the log of the concentration and fit to a 4-parameter logistical equation with no fixed parameters.
(§5) Potency is reported as the IC50 resulting from the curve fit.

human mGlu2 = molecular target: T2, human mGlu2 (Homo sapiens, UniProt Q14416); assay: mGlu2 GIRK cell-based thallium flux assay; conditions: HEK-293 co-expressing human mGlu2 and GIRK; EC80 glutamate
T2 construct: expressed in transfected cells; host or cells: HEK-293
Procedure: as §1, §2, §3, §4, §5

Helpless (H) mice = conditions: cited from earlier work; for activity in the tail suspension test: Helpless (H) mice
mice = conditions: treated mice; cited from earlier work
normal animals [1] = conditions: cited from earlier work
[2] = tested on: central mGlu2 and mGlu3 receptors; conditions: in vivo; cited from earlier work
normal animals [3] = conditions: cited from earlier work; remark: listed apart in the source
C57Bl6/J mice = conditions: cited from earlier work
[4] = tested on: Aβ-induced neurodegeneration; conditions: cited from earlier work
[5] = in vivo; cited from earlier work
[6] = tested on: olfactory bulbectomized rats; conditions: repeated administration for 14 days; cited from earlier work
[7] = tested on: social isolation-reared mice; conditions: cited from earlier work
[8] = treatment for 7 days; cited from earlier work

T1 sequence (Q14832 23-879): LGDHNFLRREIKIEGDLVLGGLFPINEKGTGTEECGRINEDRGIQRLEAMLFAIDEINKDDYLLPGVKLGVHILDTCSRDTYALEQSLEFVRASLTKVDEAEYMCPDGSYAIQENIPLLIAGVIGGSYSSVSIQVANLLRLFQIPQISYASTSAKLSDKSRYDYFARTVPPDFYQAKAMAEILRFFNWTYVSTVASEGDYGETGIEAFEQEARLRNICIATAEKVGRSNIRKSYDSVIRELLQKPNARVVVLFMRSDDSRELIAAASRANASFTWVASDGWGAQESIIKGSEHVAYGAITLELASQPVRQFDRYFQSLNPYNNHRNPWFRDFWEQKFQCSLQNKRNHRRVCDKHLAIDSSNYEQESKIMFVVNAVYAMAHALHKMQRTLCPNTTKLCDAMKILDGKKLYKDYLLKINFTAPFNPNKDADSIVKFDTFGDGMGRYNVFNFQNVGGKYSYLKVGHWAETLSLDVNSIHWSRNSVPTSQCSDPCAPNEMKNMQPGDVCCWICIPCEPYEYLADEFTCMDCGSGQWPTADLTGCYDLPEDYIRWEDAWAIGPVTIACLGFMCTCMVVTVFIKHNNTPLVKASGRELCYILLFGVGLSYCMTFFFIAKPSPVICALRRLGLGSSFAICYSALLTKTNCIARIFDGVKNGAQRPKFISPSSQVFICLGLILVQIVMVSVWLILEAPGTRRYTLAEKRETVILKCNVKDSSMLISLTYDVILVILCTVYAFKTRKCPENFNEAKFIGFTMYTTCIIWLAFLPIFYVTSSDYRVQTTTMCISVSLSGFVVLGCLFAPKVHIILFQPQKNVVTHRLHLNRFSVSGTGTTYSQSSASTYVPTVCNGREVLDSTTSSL
T2 sequence (Q14416 19-872): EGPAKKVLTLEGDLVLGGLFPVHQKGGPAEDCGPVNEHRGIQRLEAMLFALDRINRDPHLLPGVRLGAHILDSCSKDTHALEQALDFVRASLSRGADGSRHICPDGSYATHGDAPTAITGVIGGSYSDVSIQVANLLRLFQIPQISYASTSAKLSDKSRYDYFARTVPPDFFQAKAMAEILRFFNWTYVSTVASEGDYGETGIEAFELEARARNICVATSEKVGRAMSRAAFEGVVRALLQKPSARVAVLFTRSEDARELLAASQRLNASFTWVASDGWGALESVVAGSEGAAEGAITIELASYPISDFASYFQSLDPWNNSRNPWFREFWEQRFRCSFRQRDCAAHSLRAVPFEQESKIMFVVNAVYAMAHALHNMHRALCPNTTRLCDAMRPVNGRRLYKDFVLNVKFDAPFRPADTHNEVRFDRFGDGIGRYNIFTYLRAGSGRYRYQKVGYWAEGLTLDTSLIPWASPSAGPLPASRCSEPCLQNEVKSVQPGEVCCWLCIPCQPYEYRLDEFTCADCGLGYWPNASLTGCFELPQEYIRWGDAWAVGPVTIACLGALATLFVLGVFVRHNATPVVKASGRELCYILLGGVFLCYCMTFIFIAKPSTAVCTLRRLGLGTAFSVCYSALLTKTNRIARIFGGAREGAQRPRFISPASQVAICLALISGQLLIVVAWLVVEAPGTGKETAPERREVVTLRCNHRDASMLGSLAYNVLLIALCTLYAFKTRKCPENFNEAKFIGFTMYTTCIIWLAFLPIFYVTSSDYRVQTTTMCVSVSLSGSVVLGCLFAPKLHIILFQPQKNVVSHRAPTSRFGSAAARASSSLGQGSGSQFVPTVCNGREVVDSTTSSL

Structure (SMILES): CCCCCCCOC(=O)[C@@]1(F)[C@@H]2C[C@@H](OCc3ccc(Cl)c(Cl)c3)[C@@](N)(C(=O)O)[C@@H]21 [BCI-838]
- duration of inhibition of group II mGlu receptors by brain concentration of active metabolite BCI-632 (group II mGlu receptors; once-daily oral dosing): 22 h
- Dutch APP transgene-associated learning and memory impairment (group II mGlu receptors; three months of treatment): reversed
- anxiolytic effects (group II mGlu receptors; three months of treatment): provided anxiolytic effects
- levels of monomeric and oAβ peptides in the hippocampus and cortex (group II mGlu receptors; three months of treatment, two AD mouse models): decreased
- hippocampal progenitor cell proliferation (group II mGlu receptors; wild-type and Alzheimer's diseased mice, 3 months): stimulated

Structure (SMILES): Cn1ccc(COc2cc3n[nH]c(=O)n3cc2-c2ccc(F)cc2)n1 [Compound 1, 6-(4-fluorophenyl)-7-((1-methyl-1H-pyrazol-3-yl)methoxy)-[1,2,4]triazolo[4,3-a]pyridin-3(2H)-one]
- Human mGlu3 GIRK IC50 (human mGlu3): Inactive
- IC50 (human mGlu2): 771 nM

Structure (SMILES): Cc1nc(COc2cc3n[nH]c(=O)n3cc2-c2ccc(F)cc2)cs1 [Compound 3, 6-(4-fluorophenyl)-7-((2-methylthiazol-4-yl)methoxy)-[1,2,4]triazolo[4,3-a]pyridin-3(2H)-one]
- Human mGlu3 GIRK IC50 (human mGlu3): Inactive
- IC50 (human mGlu2): 104 nM

Structure (SMILES): Cc1csc(COc2cc3n[nH]c(=O)n3cc2-c2ccc(F)cc2)n1 [Compound 6, 6-(4-fluorophenyl)-7-((4-methylthiazol-2-yl)methoxy)-[1,2,4]triazolo[4,3-a]pyridin-3(2H)-one]
- Human mGlu3 GIRK IC50 (human mGlu3): Inactive
- IC50 (human mGlu2): 169 nM

Structure (SMILES): COc1ccc(-c2cn3c(=O)[nH]nc3cc2OCc2ccn(C)n2)c(F)c1 [Compound 7, 6-(2-fluoro-4-methoxyphenyl)-7-((1-methyl-1H-pyrazol-3-yl)methoxy)-[1,2,4]triazolo[4,3-a]pyridin-3(2H)-one]
- Human mGlu3 GIRK IC50 (human mGlu3): Inactive
- IC50 (human mGlu2): 89 nM

Structure (SMILES): COc1ccc(-c2cn3c(=O)[nH]nc3cc2OCc2csc(C)n2)c(F)c1 [Compound 8, 6-(2-fluoro-4-methoxyphenyl)-7-((2-methylthiazol-4-yl)methoxy)-[1,2,4]triazolo[4,3-a]pyridin-3(2H)-one]
- Human mGlu3 GIRK IC50 (human mGlu3): Inactive
- IC50 (human mGlu2): 54.2 nM

Structure (SMILES): COc1ccc(-c2cn3c(=O)[nH]nc3cc2OCc2nccn2C)c(F)c1 [Compound 9, 6-(2-fluoro-4-methoxyphenyl)-7-((1-methyl-1H-imidazol-2-yl)methoxy)-[1,2,4]triazolo[4,3-a]pyridin-3(2H)-one]
- Human mGlu3 GIRK IC50 (human mGlu3): Inactive
- IC50 (human mGlu2): 216 nM

Structure (SMILES): COc1ccc(-c2cn3c(=O)[nH]nc3cc2OCc2cc(C)n(C)n2)c(F)c1 [Compound 10, 7-((1,5-dimethyl-1H-pyrazol-3-yl)methoxy)-6-(2-fluoro-4-methoxyphenyl)-[1,2,4]triazolo[4,3-a]pyridin-3(2H)-one]
- Human mGlu3 GIRK IC50 (human mGlu3): Inactive
- IC50 (human mGlu2): 119 nM

Structure (SMILES): COc1ccc(-c2cn3c(=O)[nH]nc3cc2OCc2ccn(C)n2)cc1 [Compound 11, 6-(4-methoxyphenyl)-7-((1-methyl-1H-pyrazol-3-yl)methoxy)-[1,2,4]triazolo[4,3-a]pyridin-3(2H)-one]
- Human mGlu3 GIRK IC50 (human mGlu3): Inactive
- IC50 (human mGlu2): 85.8 nM

Structure (SMILES): N[C@](CC1c2ccccc2Oc2ccccc21)(C(=O)O)[C@H]1C[C@@H]1C(=O)O [LY341495]
- activity in the tail suspension test (Helpless (H) mice): active
- antidepressant effect in helpless mice (Helpless (H) mice; acute administration): potent antidepressant effect
- marble-burying behavior (mice): significantly reduce marble-burying behavior
- Antidepressant-like effects in rat FST (normal animals [1]): Antidepressant-like effects
- hypolocomotor effect of mGlu2/3 agonist (LY379268) [2]: achieved the same result
- Antidepressant-like effects in mouse TST (normal animals [3]): Antidepressant-like effects
- immobility time in the FST (C57Bl6/J mice): dose-dependently reduced
- amplification of Aβ-induced neurodegeneration by LY566332 [4]: prevented

Structure (SMILES): CCS(=O)(=O)N(Cc1cccnc1)c1cccc(-c2ccc(C#N)cc2)c1 [LY566332]
- Aβ-induced neurodegeneration [4]: amplified

Structure (SMILES): N[C@]1(C(=O)O)[C@H]2[C@@H](C[C@H]1OCc1ccc(Cl)c(Cl)c1)[C@]2(F)C(=O)O [MGS0039]
- marble-burying behavior (mice): reduced marble-burying behavior in a significant and dose dependent manner
- spontaneous locomotor activity (mice): no significant change
- Antidepressant-like effects in rat FST (normal animals [1]): Antidepressant-like effects
- Antidepressant-like effects in mouse TST (normal animals [3]): Antidepressant-like effects
- freezing behavior [5]: significantly decreased
- hyperactivity in the open field test [6]: attenuated the hyperactivity
- learning deficit in the passive avoidance test [6]: attenuated the learning deficit
- immobility in the FST [7]: reversed the increased immobility
- number of escape failures [8]: significantly reduced

Structure (SMILES): Cc1cc(-c2cccc(C3=Nc4cc(C)c(C(F)(F)F)cc4NC(=O)C3)c2)cc(C)n1 [RO4491533]
- activity in the tail suspension test (Helpless (H) mice): active
- hypolocomotor effect of mGlu2/3 agonist (LY379268) [2]: reversed the hypolocomotor effect
- immobility time in the FST (C57Bl6/J mice): dose-dependently reduced

Structure (SMILES): CN1C(=O)CN=C(c2ccccc2)c2cc(Cl)ccc21 [diazepam]
- freezing behavior [5]: significantly decreased

Structure (SMILES): CNCCC(Oc1ccc(C(F)(F)F)cc1)c1ccccc1 (centres unmarked) [fluoxetine]
- antidepressant effect in helpless mice (Helpless (H) mice; chronic (21 days) treatment): full antidepressant effect
